Structures are written as SMILES.

Data set [1] relates to spinal astrocytes (GFAP) in the dorsal horn of the spinal cord. Description: Spinal astrocyte activation (GFAP immunofluorescence) after intrauterine LPS. In kind it is in vivo, mouse (Balb/C). The note with it: intrauterine, mixed with LPS 100 μg/kg on first day of estrus and alone the subsequent day, 3 estrous cycles; amitriptyline 28 μg/kg, TAK-242 36 μg/kg; vs LPS. How it is done: Group 1 included twelve mice with 20 μl endotoxin-free saline introduced to the uterus on the first day of estrus and the subsequent day over 3 consecutive estrous cycles. Group 2 included twelve mice with LPS (100 μg/kg) instilled in the uterus on the first day of estrus and saline injected on the subsequent day over 3 consecutive estrous cycles. Group 3 included twelve mice with LPS (100 μg/kg) mixed with amitriptyline (20 μl of a 100 μM solution, equivalent to 28 μg/kg) instilled in the uterus on the first day of estrus, and amitriptyline alone instilled on the subsequent day over 3 consecutive estrous cycles. Group 4 included 14 mice with LPS (100 μg/kg) mixed with TAK-242 (20 μl of a 100 μM solution, equivalent to 36 μg/kg) instilled on the first day of estrus and TAK-242 alone instilled on the subsequent day over 3 consecutive estrous cycles.
The investigation involved the instillation of 20 ul of an endotoxin-free 0.9% saline solution into the uterus of all animals on the first day of estrus and the subsequent day during 3 consecutive estrous cycles. Additional agents added to the saline were included according to the groups outlined below. Where LPS is administered, this was done on only 1 day per estrous cycle.
Where amitriptyline or TAK-242 was administered, this is on both the first day of estrus and the subsequent day.
The spinal cord was assessed using immunohistochemistry techniques across levels T10, T11, T12, T13, L1, L2, L3, L4, L5, L6, S1 and S2 for Groups 1 and 2, where T represents the thoracic segment of the spinal cord, L represents the lumbar segment of the spinal cord and S represents the sacral segment of the spinal cord.
The spinal cord was assessed using immunohistochemistry techniques across levels T12, T13, L1, L2, L3, L4, L5, L6, S and S2 for Groups 3 and 4, where T represents the thoracic segment of the spinal cord, L represents the lumbar segment of the spinal cord and S represents the sacral segment of the spinal cord. […]

Data set [2] has as its target T1, human RIG-I (Homo sapiens, UniProt O95786).
T1 construct: expressed in transfected cells; host or cells: HEK293
Briefly: Human RLR antagonist screening, IRF3 luciferase reporter in HEK293 cells. Format: cell-based. The note with it: antagonist mode, Ami 1 μM. On the procedure:
RIG-I and MDA-5 stimulation were tested by assessing IRF3 activation in HEK293 cells expressing human RIG-I or MDA-5 genes. The activity of the test articles was tested on human RIG-I and MDA-5 expressing cells as a potential agonist or antagonist. The test articles were evaluated at one concentration and compared to control ligands. This step was performed in triplicate. The results are provided as Relative Luminescence Units (RLUs). RIG-I/MDA-5: Poly(I:C)/LyoVec at 1 μg/mL Antagonist: 500 ng/mL. 5′ppp-dsRNA/LyoVec at 1 μg/mL Antagonist: 500 ng/mL. hIFNα at 1000 IU/mL. Antagonist: 100 IU/mL. In a 96-well plate (200 μL total volume) containing the appropriate cells (25,000-50,000 cells/well), 20 μL of the test article or of the positive control ligand was added to the wells. For the antagonist assay, the test article was incubated with the cells, at 37° C. with 5% CO2, for 30 minutes prior to the addition of the positive control ligand to the wells. After 20 hour incubation, activation of the IRF pathway was monitored using a luciferase detection assay. Luciferase activity was assayed in triplicate from the supernatant of the induced cells, and the relative luminescence units (RLUs) are detected by a Promega GloMax Luminometer. Fold induction (ratio of average induced value to average non-induced value).
Background: A reporter such as luciferase makes a cellular process visible.

T1 sequence (O95786 whole entry): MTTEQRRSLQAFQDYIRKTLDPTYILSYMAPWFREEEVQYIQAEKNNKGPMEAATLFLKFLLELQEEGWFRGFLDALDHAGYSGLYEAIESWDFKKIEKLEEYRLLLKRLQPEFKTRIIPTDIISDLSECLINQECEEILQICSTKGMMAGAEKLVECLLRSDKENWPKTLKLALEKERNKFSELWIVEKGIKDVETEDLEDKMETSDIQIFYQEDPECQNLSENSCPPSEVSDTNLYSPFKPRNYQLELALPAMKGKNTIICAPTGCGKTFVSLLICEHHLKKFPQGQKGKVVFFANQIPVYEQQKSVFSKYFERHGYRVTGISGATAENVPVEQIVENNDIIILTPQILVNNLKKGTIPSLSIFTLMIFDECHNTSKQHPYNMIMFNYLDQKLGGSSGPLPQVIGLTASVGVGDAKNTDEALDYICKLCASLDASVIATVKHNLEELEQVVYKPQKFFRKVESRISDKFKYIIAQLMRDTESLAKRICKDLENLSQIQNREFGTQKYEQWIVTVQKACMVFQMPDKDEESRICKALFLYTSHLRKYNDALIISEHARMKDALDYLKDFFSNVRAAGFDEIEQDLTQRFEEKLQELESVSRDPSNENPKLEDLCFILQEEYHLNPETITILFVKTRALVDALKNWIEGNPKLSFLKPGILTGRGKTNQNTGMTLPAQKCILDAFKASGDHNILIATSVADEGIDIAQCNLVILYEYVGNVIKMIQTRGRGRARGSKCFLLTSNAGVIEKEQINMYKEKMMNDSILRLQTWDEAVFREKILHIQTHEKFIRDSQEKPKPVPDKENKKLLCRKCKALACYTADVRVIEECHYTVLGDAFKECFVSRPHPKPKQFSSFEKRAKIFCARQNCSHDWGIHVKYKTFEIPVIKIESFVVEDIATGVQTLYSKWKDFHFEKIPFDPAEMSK

In the case of `CN(C)CCC=C1c2ccccc2CCc2ccccc21` [Amitriptyline], the “astrocytic reactivity (GFAP staining), impact of intrauterine LPS at multiple levels of the spinal cord” value in data set [1] is recorded as “reduced astrocytic reactivity to below basal levels”. Further, the “Fold induction (ratio of average induced value to average non-induced value)” value turned out to be 6 in data set [2] (5′ppp-dsRNA/LyoVec 500 ng/mL, No Sample 6, Control− 1) and 16 in data set [2] (Poly(I:C)/LyoVec 500 ng/mL, No Sample 16, Control− 1).

For the origin of these results see US11400059B2, “Treatment of pain and/or pain related symptoms associated with dysmenorrhea” (ALYRA BIOTECH PTY LTD, priority 2017, dated 2022).
